{"source": "paper PMC10058949", "about": "“Effect of N-Terminal Peptide Modifications on In Vitro and In Vivo Properties of ^177Lu-Labeled Peptide Analogs Targeting CCK2R” (Pharmaceutics, 2023)", "key": {"CCK2R": {"target": "T1, CCK2R (Homo sapiens, UniProt P32239)", "T1 construct": "expressed in transfected cells; host or cells: A431 human epidermoid carcinoma cells (A431-CCK2R, from Dr. Luigi Aloj)", "T1 sequence (P32239 1-447)": "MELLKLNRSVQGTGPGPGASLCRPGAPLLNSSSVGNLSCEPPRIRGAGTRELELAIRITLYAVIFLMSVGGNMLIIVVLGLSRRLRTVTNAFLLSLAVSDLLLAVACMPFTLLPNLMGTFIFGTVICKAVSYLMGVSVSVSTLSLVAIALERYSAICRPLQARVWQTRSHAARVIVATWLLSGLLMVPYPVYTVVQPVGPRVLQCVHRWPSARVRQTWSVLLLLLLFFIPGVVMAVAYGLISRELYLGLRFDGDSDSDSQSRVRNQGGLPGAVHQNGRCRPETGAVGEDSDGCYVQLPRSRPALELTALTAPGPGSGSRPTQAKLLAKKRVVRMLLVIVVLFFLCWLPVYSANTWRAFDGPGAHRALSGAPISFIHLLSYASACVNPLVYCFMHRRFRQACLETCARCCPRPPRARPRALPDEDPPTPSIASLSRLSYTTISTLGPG", "experiment": "Competition assay against [125I][3-iodo-Tyr12,Leu15]gastrin-I on A431-CCK2R cells", "type": "binding", "experimental": "Binding experiments were performed using 96-well filter plates (MultiScreenHTS-FB, Merck Group, Darmstadt, Germany) washed with 10 mM TRIS/139 mM NaCl pH 7.4 (2 × 250 µL). For the experiment, 0.4 × 10^6 A431-CCK2R cells in 100 µL binding buffer (20 mM HEPES buffer with pH 7.4 and 10 mM MgCl2, 14 µM bacitracin, and 0.5% BSA) were added to each well. Fifty µL of [^125I][3-iodo-Tyr^12,Leu^15]gastrin-I (~25,000 cpm) and 50 µL of different dilutions of the peptide conjugates (reaching final concentrations of 0.0003–1000 nM) were added and the cells were incubated in triplicates for 1 h at room temperature. […] Incubation was interrupted by filtration of the medium and rapid rinsing with ice-cold 10 mM TRIS/139 mM NaCl pH 7.4 (2 × 200 µL). The filters were collected and counted in a γ-counter (2480 Wizard2 3”, PerkinElmer Life Sciences and Analytical Sciences, formerly Wallac Oy, Turku, Finland). Half-maximal inhibitory concentration (IC50) values were calculated following nonlinear regression with Origin software (Microcal Origin 6.1, Northampton, MA, USA)."}, "human serum proteins": {"test_system": "human serum proteins", "experiment": "Protein binding in human serum by Sephadex G-50 size-exclusion chromatography", "type": "in vitro ADME", "protocol": "(§1) The stability studies with the ^177Lu-labeled peptide analogs were carried out at a concentration of 0.5 nmol peptide/mL in fresh human serum (n = 2) for up to 24 h. A mixture of 0.05 nmol/mL of the radiolabeled peptides in PBS and octanol (1/1, v/v) was used to evaluate the octanol/PBS distribution coefficient (logD7.4; n = 8). To determine the protein binding in human serum by Sephadex G-50 size-exclusion chromatography (GE Healthcare Illustra, Little Chalfont, UK), a 25 µL serum sample was used for different time points after incubation. All steps were performed according to previously published protocols."}, "[1]": {"experiment": "Biodistribution 4 h p.i. in A431-CCK2R/A431-mock xenografted BALB/c nude mice", "type": "in vivo", "settings": "female, BALB/c nude, mouse, in vivo, iv, 20 pmol, total radioactivity", "protocol": "(§2) Then, after 7–11 days, when visible tumor xenografts were formed, groups of 5 mice were injected intravenously via a lateral tail vein with ~0.5 MBq of radiolabeled peptide, corresponding to 20 pmol of peptide, in a total volume of ~150 µL in PBS/0.5% BSA. Using an additional mouse per group, a blocking study was performed by co-injecting a 1000-fold molar excess of the respective peptide analog (20 nmol) together with the radiolabeled peptide. For quantification, a 1:1, 1:10 and 1:50 standard was prepared using aliquots of the injection solution mixed with PBS/0.5% BSA. Mice were euthanized by cervical dislocation 4 h after injection. Subsequently, a blood sample was collected, and different tissues were dissected. All samples, as well as the rest of the body were weighed, and the activity measured in the γ-counter together with the standard. Results were expressed as percentage of injected activity per gram of tissue (%IA/g)."}, "[2]": {"experiment": "Octanol/PBS distribution coefficient (logD7.4)", "type": "physicochemical", "settings": "pH 7.4", "protocol": "as §1"}, "[3]": {"experiment": "Biodistribution blocking experiment with 1000-fold excess of non-radiolabeled peptide", "type": "in vivo, mice", "settings": "female, BALB/c nude, mouse, in vivo, iv, total radioactivity, blocking", "protocol": "as §2"}}, "note": "Read-outs that look alike come from different tables or passages of the source. Non-standard residues stand in square brackets, D forms with d. Residues, ends and D or L forms follow the SMILES beside them. *: point of attachment. DOTA = O=C(O)CN1CCN(CC(=O)O)CCN(CC(=O)*)CCN(CC(=O)O)CC1; 1Nal = N[C@@H](Cc1cccc2ccccc12)C(=O)O; NMeNle = CCCC[C@H](NC)C(=O)O"}
{"smiles": "CCCC[C@@H](C(=O)N[C@@H](CC(=O)O)C(=O)N[C@@H](Cc1cccc2ccccc12)C(N)=O)N(C)C(=O)[C@H](Cc1c[nH]c2ccccc12)NC(=O)CNC(=O)[C@H](Cc1ccc(O)cc1)NC(=O)[C@H](C)NC(=O)[C@@H](CCC(=O)O)NC(=O)[C@@H](CCC(=O)O)NC(=O)[C@@H](CCC(=O)O)NC(=O)[C@@H](CCC(=O)O)NC(=O)[C@@H](CCC(=O)O)NC(=O)[C@@H](CCC(=O)O)NC(=O)CN1CCN(CC(=O)O)CCN(CC(=O)O)CCN(CC(=O)O)CC1", "note": "[Peptide 1, DOTA-(DGlu)6-Ala-Tyr-Gly-Trp-(N-Me)Nle-Asp-1Nal-NH2] ({DOTA}-[dE][dE][dE][dE][dE][dE]AYGW[NMeNle]D[1Nal]-NH2)", "values": [{"measurement": "IC50", "setting": "CCK2R", "result": "0.18 ± 0.02", "unit": "nM"}]}
{"smiles": "CCCC[C@@H](C(=O)N[C@@H](CC(=O)O)C(=O)N[C@@H](Cc1cccc2ccccc12)C(N)=O)N(C)C(=O)[C@H](Cc1c[nH]c2ccccc12)NC(=O)CCNC(=O)CC(O)CNC(=O)CC(O)CNC(=O)CN1CCN(CC(=O)O)CCN(CC(=O)O)CCN(CC(=O)O)CC1", "note": "(stereo partly drawn) [Peptide 2, DOTA-(GABOB)2-βAla-Trp-(N-Me)Nle-Asp-1Nal-NH2]", "values": [{"measurement": "IC50", "setting": "CCK2R; A431-CCK2R cells, 1 h room temperature, n = 3, read-out: IC50", "result": 0.24, "unit": "nM"}]}
{"smiles": "CCCC[C@@H](C(=O)N[C@@H](CC(=O)O)C(=O)N[C@@H](Cc1cccc2ccccc12)C(N)=O)N(C)C(=O)[C@H](Cc1c[nH]c2ccccc12)NC(=O)CNC(=O)[C@H](Cc1ccc(O)cc1)NC(=O)[C@H](C)NC(=O)[C@@H](CCC(=O)O)NC(=O)[C@@H](CCC(=O)O)NC(=O)[C@@H](CCC(=O)O)NC(=O)[C@@H](CCC(=O)O)NC(=O)[C@@H](CCC(=O)O)NC(=O)[C@@H](CCC(=O)O)NC(=O)CN1CCN(CC(=O)O)CCN(CC(=O)O)CCN(CC(=O)O)CC1", "note": "[[^177Lu]Lu-1, metal not drawn] ({DOTA}-[dE][dE][dE][dE][dE][dE]AYGW[NMeNle]D[1Nal]-NH2)", "values": [{"measurement": "change in binding to human serum proteins compared to [177Lu]Lu-DOTA-MGS5", "setting": "human serum proteins", "result": "increased by a factor of two"}, {"measurement": "tissue uptake at 4 h", "setting": "[1]; uptake in A431-CCK2R xenografts", "result": "22.2 ± 6.23", "unit": "%ID/g"}, {"measurement": "tissue uptake at 4 h", "setting": "[1]; uptake in A431-mock xenografts", "result": "0.14 ± 0.04", "unit": "%ID/g"}, {"measurement": "tissue uptake at 4 h", "setting": "[1]; uptake in blood", "result": 0.02, "unit": "%ID/g"}, {"measurement": "tissue uptake at 4 h", "setting": "[1]; uptake in femur", "result": "0.21 ± 0.05", "unit": "%ID/g"}, {"measurement": "tissue uptake at 4 h", "setting": "[1]; uptake in heart", "result": "0.06 ± 0.01", "unit": "%ID/g"}, {"measurement": "tissue uptake at 4 h", "setting": "[1]; uptake in intestine", "result": "0.42 ± 0.07", "unit": "%ID/g"}, {"measurement": "tissue uptake at 4 h", "setting": "[1]; uptake in kidneys", "result": "21.6 ± 2.11", "unit": "%ID/g"}, {"measurement": "tissue uptake at 4 h", "setting": "[1]; uptake in liver", "result": "2.48 ± 0.39", "unit": "%ID/g"}, {"measurement": "tissue uptake at 4 h", "setting": "[1]; uptake in lung", "result": "0.12 ± 0.04", "unit": "%ID/g"}, {"measurement": "tissue uptake at 4 h", "setting": "[1]; uptake in muscle", "result": "0.04 ± 0.02", "unit": "%ID/g"}, {"measurement": "tissue uptake at 4 h", "setting": "[1]; uptake in pancreas", "result": "1.25 ± 0.27", "unit": "%ID/g"}, {"measurement": "tissue uptake at 4 h", "setting": "[1]; uptake in spleen", "result": "1.86 ± 0.62", "unit": "%ID/g"}, {"measurement": "tissue uptake at 4 h", "setting": "[1]; uptake in stomach", "result": "4.77 ± 1.1", "unit": "%ID/g"}, {"measurement": "logD", "setting": "[2]", "result": "-4.18 ± 0.24"}, {"measurement": "tissue uptake at 4 h", "setting": "[3]; uptake in A431-CCK2R xenograft", "result": 0.45, "unit": "%ID/g"}, {"measurement": "tissue uptake at 4 h", "setting": "[3]; uptake in A431-mock xenograft", "result": 0.12, "unit": "%ID/g"}, {"measurement": "tissue uptake at 4 h", "setting": "[3]; uptake in blood", "result": 0.03, "unit": "%ID/g"}, {"measurement": "tissue uptake at 4 h", "setting": "[3]; uptake in femur", "result": 0.18, "unit": "%ID/g"}, {"measurement": "tissue uptake at 4 h", "setting": "[3]; uptake in heart", "result": 0.05, "unit": "%ID/g"}, {"measurement": "tissue uptake at 4 h", "setting": "[3]; uptake in lung", "result": 0.06, "unit": "%ID/g"}, {"measurement": "tissue uptake at 4 h", "setting": "[3]; uptake in pancreas", "result": 0.05, "unit": "%ID/g"}, {"measurement": "tissue uptake at 4 h", "setting": "[3]; uptake in stomach", "result": 0.06, "unit": "%ID/g"}]}
